Measurements from patent US20230172200A1, “A LIQUID ANTI-PATHOGENIC AGRICULTURAL COMPOSITION” (ORO AGRI INC., priority 2019, published 2023).

Assay: Paraffin wax solubility test
Format: physicochemical
Conditions: 2.0 g paraffin wax in 98 g solvent, 25 °C; for Observation: up to 24-hours stirring; for Dissolution Time: stirring at 350 rpm
Description: A method to evaluate the capability of a solvent to dissolve paraffin wax was developed and it helps to understand how will be performed certain solvent when applied to an epicuticular surface of a plant or an insect.

Structure (SMILES)	Observation	Dissolution Time
C[S+](C)[O-] [dimethyl sulfoxide]	undissolved after	–
CCCCCCCCCCCC(=O)OCCC(C)C [isoamyl laurate]	stable at 25° c.	620 min
OCC1CCCO1 (stereo not shown) [tetrahydrofurfural alcohol]	undissolved after	–
CCCCCCCCCCCC(=O)OCC(CC)CCCC (stereo not shown) [2-ethylhexyl laurate]	stable at 25° c.	930 min
CC1COC(=O)O1 (stereo not shown) [propylene carbonate]	undissolved after	–
CCCCCCCCCCCCCC(=O)OC(C)C [isopropyl myristate]	stable at 25° c.	–
CCCCCCCCCCCC(=O)OC [methyl laurate]	stable at 25° c.	300 min
CCCCCCCCCCCC(=O)OC(C)C [isopropyl laurate]	stable at 25° c.	102 min
CCCCCCCCCC(=O)N(C)C [N,N-dimethyldecanamide]	undissolved after	–
O=C1CCCCC1 [cyclohexanone]	undissolved after	–
CCCCCCCCCCCC(=O)OCC(C)C [isobutyl laurate]	stable at 25° c.	340 min
